# Results taken from patent US11040951B2, “Methods and compositions relating to genotoxin colibactin” (PRESIDENT AND FELLOWS OF HARVARD COLLEGE, priority 2018, dated 2021).
# Entries after “also recorded” stand apart in the source; their conditions may differ. Read-outs that look alike come from different tables or passages of the source. Non-standard residues stand in square brackets, D forms with d. Residues, ends and D or L forms follow the SMILES beside them. *: point of attachment. Myristoyl = CCCCCCCCCCCCCC(=O)*
# Tests used:
# [1] = tested on: ClbPFL (full-length ClbP); test: In vitro cleavage of synthetic substrates by ClbPFL, LC-MS detection; type: biochemical, E. coli; settings: for cleavage by ClbPFL in vitro: LC-MS detection of cleavage product
# Protocol: (§1) The top graph of FIG. 2A depicts LC-MS detection of the prodrug scaffold ([M+H]^+: 343.2597 m/z) released by the hydrolysis of (1) by ClbP in vitro. Reactions were carried out in 50 mM Tris pH 8.0, 200 mM NaCl, 0.1 μM enzyme. 0.02% w/v DDM was added for all reactions involving full-length ClbP (Error bars are SD, n=3). The bottom graph of FIG. 2B depicts kinetic analysis of ClbP acting on synthetic precolibactin-mimic substrate (1). Note that this substrate is insoluble above 200 μM under assay conditions. Rates were calculated by quenching reactions in 1-minute intervals in methanol and quantifying the amount of substrate cleaved by derivatization of the L-alanine product with o-phthaldialdehye (OPA) and fluorescence detection (see Examples) (Error bars are SD, n=3). Substrate is insoluble above 200 μM under assay conditions. All kinetics experiments are averages of 3 independent replicates, reactions were carried out in 50 mM Sodium Phosphate pH 8.0, 200 mM NaCl, 0.02% w/v DDM, 0.1 μM enzyme. The bottom graph of FIG. 2B depicts the approach and substrates sampled in this SAR study. All kinetics experiments are averages of 3 independent replicates, reactions were carried out in 50 mM Sodium Phosphate pH 8.0, 200 mM NaCl, 0.02% w/v DDM, 0.1 μM ClbP-FL (full length) (also referred to herein as ClbPFL). All errors are ±SD.
# Optical densities of E. coli cultures were determined with a DU 730 Life Sciences UV/Vis spectrophotometer (Beckman Coulter, Indianapolis, Ind.) by measuring absorbance at 600 nm. Ultracentrifugation was performed on a Beckman-Coulter Optima XE-90 Ultracentrifuge fitted with a type 45 Ti rotor in 70 mL polycarbonate tubes. Solvents and formic acid used for LC-MS were B & J Brand High Purity Solvents (Honeywell Research Chemicals). High-resolution LC-MS analyses of enzyme assays and synthetic compounds were performed on an Agilent 6530 Q-TOF Mass Spectrometer fitted with a dual-spray electrospray ionization (ESI) source. The capillary voltage was set to 3.5 kV, the fragmentor voltage to 175 V, the skimmer voltage to 65 V, and the Oct 1 RF to 750 V. The drying gas temperature was maintained at 275° C. with a flow rate of 8 L/min and a nebulizer pressure of 35 psi. A standard calibrant mix was introduced continuously during all experiments via the dual-spray ESI source. For analytical liquid chromatography, unless otherwise noted, experiments were performed using an Agilent Technologies 1200 series LC on a Hypersil GOLDaq™ C18 reverse phase column (50×3 mm, Thermo Scientific) with the following elution conditions: a gradient from 35% solvent A:65% solvent B to 100% solvent A over 5 minutes, holding at 100% A for 2 minutes, followed by a gradient back to 35% solvent A over 1 minute and holding at 35% solvent A for 3.5 minutes (solvent A: acetonitrile+0.1% formic acid; solvent B: water+0.1% formic acid; flow rate=0.4 mL/minute; injection volume=10 μL). All experiments were performed in positive ion mode, and the masses detected corresponded to [M+H]+ ions unless otherwise noted. Masses were found within 5 ppm of the expected [M+H]+ masses.
# For all in vitro assays involving ClbPFL and ClbFL-S95A “Tris assay buffer” refers to a buffer composed of 50 mM Tris, 200 mM NaCl, 0.02% w/v DDM, pH 8.0. Likewise, “phosphate assay buffer” refers to 50 mM sodium phosphate, 200 mM NaCl, 0.02% w/v DDM, pH 8.0.
# [2] = tested on: CCCC(=O)N[C@H](CC(N)=O)C(=O)N[C@@H](C)C(=O)OC; test: In vitro kinetics of ClbPFL-mediated cleavage of substrates, o-phthaldialdehyde (OPA) derivatization of L-alanine product with fluorescence detection (FIGS. 2B, 10, 11); type: biochemical, E. coli; settings: pH 8.0
# Protocol: as §1
# (§2) FIGS. 10A-10C depict the kinetics of ClbPFL-mediated cleavage of substrates (FIG. 10A) 2, (FIG. 10B) 3, and (FIG. 10C) 4. Each data point is an average of 3 biological replicates with error bars representing 1 SD. Solid lines are non-linear regression fits of data points to the Michaelis-Menten model.
# (§3) FIG. 11 depicts the kinetic parameters for substrates 2, 3, and 4. […]
# (§4) To determine the key features for substrate recognition by full-length ClbP, we undertook a structure-activity-relationship (SAR) focusing on three key regions of the substrate. […] Using a higher-throughput fluorescence derivatization assay, we determined kinetic parameters for several of these substrates (FIG. 2B). […]
# [3] = tested on: CCCCCCCCCCCCCC(=O)N[C@H](CC(N)=O)C(=O)N[C@@H](C)C(=O)OC; test: as above; type: biochemical, E. coli; settings: pH 8.0
# Protocol: as §1, §2, §3, §4
# [4] = tested on: COC(=O)[C@H](C)NC(=O)[C@@H](CC(N)=O)NC(=O)CCCc1ccccc1; test: as above; type: biochemical, E. coli; settings: pH 8.0
# Protocol: as §1, §2, §3, §4
# [5] = tested on: CCCCCCCCCCCCCC(=O)N[C@H](CC(N)=O)C(=O)N[C@@H](C)C(=O)OC; test: Kinetics of ClbPFL-mediated cleavage of substrates 1 and 2 (FIG. 8); type: biochemical, E. coli; settings: pH 8.0
# Excerpt: (§5) FIG. 8 depicts the kinetics of ClbPFL-mediated cleavage of substrates 1 and 2. Each data point is an average of 3 biological replicates with error bars representing 1 SD. Solid lines are non-linear regression fits of data points to the Michaelis-Menten equation.
# (§6) As used herein “ClbP” or “colibactin P” refers to a membrane bound periplasmic peptidase that cleaves an N-acyl-D-asparagine motif (the ‘prodrug scaffold’) from the N-terminus of precolibactin to liberate the active colibactin (FIG. 1). The sequences of ClbP are known in the art, e.g., the polypeptide sequence is available in the Uniprot database as accession number Q0P7K6 (SEQ ID NO: 1).
# (§7) We obtained purified enzyme by separating the cell components using ultracentrifugation, solubilizing the membranes in an n-dodecyl-β-D-maltoside (DDM)-containing buffer, and per¬forming immobilized metal affinity chromatography. Because the structure of precolibactin has not yet been fully elucidated, we tested purified ClbPFL against a variety of synthetic precolibactin analogues. […] We chose substrate 2 for a more detailed structure—activity relationship (SAR) study. […]
# [6] = tested on: CCCCCCCCCCCCCC(=O)N[C@H](CC(N)=O)C(=O)N[C@@H](C)CCC(=O)CC(=O)NC1(C(=O)O)CC1; test: as above; type: biochemical, E. coli; settings: pH 8.0
# Excerpt: as §5, §6, §7
# [7] = tested on: ClbPFL-S95A; test: In vitro cleavage of synthetic substrates by inactive mutant, LC-MS detection; type: biochemical, E. coli
# Protocol: as §1
# (§8) Optical densities of E. coli cultures were determined with a DU 730 Life Sciences UV/Vis spectrophotometer (Beckman Coulter, Indianapolis, Ind.) by measuring absorbance at 600 nm. Ultracentrifugation was performed on a Beckman-Coulter Optima XE-90 Ultracentrifuge fitted with a type 45 Ti rotor in 70 mL polycarbonate tubes. Solvents and formic acid used for LC-MS were B & J Brand High Purity Solvents (Honeywell Research Chemicals). High-resolution LC-MS analyses of enzyme assays and synthetic compounds were performed on an Agilent 6530 Q-TOF Mass Spectrometer fitted with a dual-spray electrospray ionization (ESI) source. […] All experiments were performed in positive ion mode, and the masses detected corresponded to [M+H]+ ions unless otherwise noted. […]
# [8] = tested on: ClbPpep; test: In vitro cleavage of synthetic substrates by isolated peptidase domain, LC-MS detection; type: biochemical, E. coli
# Protocol: as §1, §8
# [9] = tested on: ClbPFL; test: In vitro kinetics assay with ClbPFL (o-phthaldialdehyde derivatization); type: biochemical, E. coli
# Protocol: In vitro kinetics assays with ClbPFL (comparison of substrates 2, 3, and 4 using o-phthaldialdehyde derivatization): Assays were run in triplicate in 1.5 mL deep-well plates. ClbPFL-CHis10 was defrosted from −80° C. stocks on ice, then buffer exchanged into phosphate assay buffer using Zeba Spin 40K MWCO desalting columns (ThermoFisher Scientific). The enzyme was then diluted to 0.6 μM in phosphate assay buffer and 50 μL of this stock was deposited in the appropriate wells. The substrate of interest was prepared in a 2-fold dilution series in phosphate assay buffer. Reactions were initiated by the addition of 250 μL of substrate stock to each assay well to a final concentration of 0.1 μM ClbP, 12.5-200 μM substrate, 3% DMSO and incubated at 25° C. Reaction mixtures were pipetted briefly to mix. […] 50 μL of each supernatant from the quenched reactions and standard curves were then transferred to the appropriate wells, pipetted once to mix, and then fluorescence was immediately measured on a plate reader (Bio-Tek Synergy HTX multimode plate reader, measurement settings −360/40 nm excitation filter, 440/20 nm emission filter, detector gain: 35). Fluorescence was measured every 30 seconds for 10 minutes and the maximum value achieved for each well was used for calculations. […]
# [10] = Solubility and membrane permeability as observed in the assays; type: physicochemical; settings: under assay conditions
Molecule,cleavage by ClbPFL in vitro [1],cleavage by ClbPFL-S95A in vitro [7],cleavage by ClbPpep in vitro [8],kinetic parameters / hydrolysis efficiency compared with the reference substrate [9],also measured
CCCCCCCCCCCCCC(=O)N[C@H](CCC(N)=O)C(=O)N[C@@H](C)C(=O)OC [(8)] (Myristoyl-[dQ]-Ala-OMe),no cleavage products were detected,–,–,–,–
CCCCCCCCCCCCCC(=O)N[C@H](CC(=O)O)C(=O)N[C@@H](C)C(=O)OC [(6)] (Myristoyl-[dD]-Ala-OMe),cleaved in low amounts,–,–,–,"amount cleaved by ClbPFL, fold less than (1) ([1]; LC-MS, relative to (1)): ~100 fold"
"ClbPFL (full-length ClbP, ClbPFL-CHis10) (Escherichia coli)",–,–,–,–,Km [2]: 680 ± 470 µM; Km [3]: 130 ± 26 µM; Km [4]: 246 ± 70 µM; Km [5]: 75 ± 23 µM; Km [6]: 16 ± 2 µM
CCCCCCCCCCCCCC(=O)N[C@H](CC(N)=O)C(=O)N[C@@H](C)CCC(=O)CC(=O)NC1(C(=O)O)CC1 [(1)],rapidly in vitro,no cleavage activity,no cleavage activity,comparable,cleavage by ClbPFL-S95A in vitro ([7]; listed as 2): no activity; cleavage by ClbPpep in vitro ([8]; listed as 2): no activity; also recorded: cannot process; solubility limit [10]: ≤ 200 µM
CCCCCCCCCCCCCC(=O)N[C@H](CC(N)=O)C(=O)N[C@@H](C)CCC(=O)CC(=O)NC1(C(=O)O)CC1 [Compound 1],rapidly in vitro,no activity,no activity,comparable,–
CCCCCCCCCCCCCC(=O)N[C@@H](CC(N)=O)C(=O)N[C@@H](C)C(=O)OC [(7)] (Myristoyl-Asn-Ala-OMe),no cleavage products were detected,–,–,–,–
